Experimental data published in patent US8558028B2, “Compound capable of inhibiting 17-beta hydroxysteriod dehydrogenase” (University of Bath of Claverton Down, priority 2007, dated 2013).

Molecular target: T1, human 17β-HSD3 (Homo sapiens, UniProt P37058)
T1 construct: 293-EBNA cells stably transfected with 17β-HSD Type 3; expressed in transfected cells; host or cells: human 293-EBNA cells, stably transfected
T1 sequence (P37058 1-310): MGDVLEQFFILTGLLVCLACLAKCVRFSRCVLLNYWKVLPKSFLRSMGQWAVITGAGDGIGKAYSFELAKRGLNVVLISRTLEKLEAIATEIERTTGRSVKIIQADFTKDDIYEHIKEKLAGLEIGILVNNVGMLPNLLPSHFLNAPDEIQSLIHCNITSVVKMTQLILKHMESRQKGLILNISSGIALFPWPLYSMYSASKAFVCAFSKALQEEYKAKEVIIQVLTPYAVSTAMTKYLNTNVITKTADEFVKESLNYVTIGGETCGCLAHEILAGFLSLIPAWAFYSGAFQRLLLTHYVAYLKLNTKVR
Assay: 17β-Hydroxysteroid dehydrogenase Type 3 activity in stably transfected 293-EBNA cells (TLC assay, 3H-androstenedione to testosterone)
Type: cell-based
Details: human 293-EBNA cells stably transfected with 17β-HSD Type 3, mean of at least 2 measurements, typically SD ±5%
Method: Assay Protocol-17β-Hydroxysteroid Dehydrogenase Type 3 Activity in the Presence of Regulatory Agents
293-EBNA cells stably transfected with 17β-HSD Type 3 were plated at 50,000 cells/well in 24 well plates in complete growth medium. After 48 hours 2-3 nM ^3H-Androstenedione in assay medium (500 ml DMEM medium with 5 ml 100×L-Glutamine, and 5 ml 7.5% sodium bicarbonate solution) was added with or without test compound at 1.5 ml/well (triplicate), and the cells incubated at 37° C.
Two hours later 1 ml medium was removed from each well and placed in a 125×16 mm glass test tube containing 25 μl of recovery solution (5000 dpm ^14C-Testosterone and 25 μg unlabelled
Testosterone). Ether (4 ml) was added and the tubes vortexed at high speed for 2×30 sec. After the samples had settled into two phases they were snap-frozen in a dry ice/methanol bath. The upper organic phase was decanted into 75×12 mm tubes and evaporated to dryness under an airstream using a sample concentrator (TECHNE) at 40° C. The samples were resuspended in ether (8 drops, then a further 3), spotted onto silica 60 F254 20 cm×20 cm TLC plates, and separated using a 4:1 v/v dichloromethane:ethyl acetate mobile phase.
After drying the plates, the major spots were marked under a UV lamp, cut out, and placed in individual scintillation vials containing 0.5 ml methanol. These were then shaken lightly and allowed to stand for 15 min before adding 10 ml of EcoScint A (scintillation fluid) to each tube along with 0.5 ml assay medium, and counted in a scintillation spectrometer (Beckman) using a program for dual [^3H/^14C] isotopes. The number of cells/well was then counted using a Coulter counter (Beckman).
The inhibitory activity of the test compounds is then assessed by calculating the amount of product formed correcting for crossover between isotope counts, recovery, dilution and non-enzymatic degradation (fmol/hr/million cells) with and without inhibitor, (% inhibition).
Compounds were tested at 10 μM for inhibition of human 17β-HSD3 with typically ˜200,000 to 300,000 human 293-EBNA cells/well.

SMILES	inhibition at 10 µM [%]
CC(=O)Nc1ccccc1CNc1ccccc1Oc1ccc(Cl)cc1	> 60
CC(=O)Nc1ccccc1CNc1ccccc1Oc1ccc(OC(F)(F)F)cc1	> 60
CC(=O)Nc1ccccc1CNc1cc(F)ccc1Oc1ccc(Cl)cc1	> 60
CC(=O)Nc1cc2c(cc1CNc1ccccc1Oc1ccc(Cl)cc1)OCO2	> 60
COc1cc(CNc2ccccc2Oc2ccc(Cl)cc2)c(NC(C)=O)cc1OC	< 20
COc1cc(CNc2ccccc2Oc2ccc(Cl)cc2Cl)c(NC(C)=O)cc1OC	< 20
CC(=O)Nc1c(CNc2ccccc2Oc2ccc(Cl)cc2)ccc2ccccc12	< 20
CC(=O)Nc1ccc(C)cc1CNc1ccccc1Oc1ccc(Cl)cc1	> 60
CC(=O)Nc1ccc(Cl)cc1CNc1ccccc1Oc1ccc(Cl)cc1	> 60
CC(=O)Nc1ccc(Cl)cc1CNc1ccccc1Oc1ccc(Cl)cc1Cl	20 to 60
CC(=O)Nc1ccc(Cl)cc1CNc1ccccc1Oc1ccc(OC(F)(F)F)cc1	> 60
CC(=O)Nc1ccccc1C(=O)Nc1ccccc1Oc1ccc(Cl)cc1	< 20
O=C(Nc1ccccc1C(=O)Nc1ccccc1Oc1ccc(Cl)cc1)c1ccccc1	< 20
CC(=O)N(C)c1ccccc1CNc1ccccc1Oc1ccc(Cl)cc1	> 60
CC(=O)N(C)c1ccccc1CN(C)c1ccccc1Oc1ccc(Cl)cc1	20 to 60
CC(=O)Nc1ccccc1CN(C)c1ccccc1Oc1ccc(Cl)cc1	< 20

SMILES	inhibition at 10 µM [%]
CC(=O)Nc1ccccc1CN(C(C)=O)c1ccccc1Oc1ccc(Cl)cc1	< 20
CC(=O)Nc1ccc(CNc2ccccc2Oc2ccc(Cl)cc2)cc1	20 to 60
CC(=O)Nc1ccc(CNc2ccccc2Oc2ccc(Cl)cc2Cl)cc1	< 20
CC(=O)Nc1cccc(CNc2ccccc2Oc2ccc(Cl)cc2)c1	20 to 60
CC(=O)N1CCC(Nc2ccccc2CN(C(C)=O)c2ccccc2Oc2ccc(Cl)cc2)CC1	20 to 60
CC(=O)N1CCC(Nc2ccccc2CNc2ccccc2Oc2ccc(Cl)cc2)CC1	20 to 60
CC(=O)N1CCC(C(=O)Nc2ccccc2CNc2ccccc2Oc2ccc(Cl)cc2)CC1	> 60
CC(=O)N1CCC(C(=O)Nc2cccc(CNc3ccccc3Oc3ccc(Cl)cc3)c2)CC1	> 60
CCNc1ccccc1C(C)Nc1ccccc1Oc1ccc(Cl)cc1 (centres unmarked)	20 to 60
CCN(C(C)=O)c1ccccc1C(C)Nc1ccccc1Oc1ccc(Cl)cc1 (centres unmarked)	> 60
C=CCC(Nc1ccccc1Oc1ccc(Cl)cc1)c1ccccc1NC(C)=O (centres unmarked)	> 60
C=CC[C@@H](Nc1ccccc1Oc1ccc(Cl)cc1)c1ccccc1NC(C)=O	20 to 60
C=CC[C@H](Nc1ccccc1Oc1ccc(Cl)cc1)c1ccccc1NC(C)=O	> 60
CC(=O)Nc1ccccc1C(Cc1ccccc1)Nc1ccccc1Oc1ccc(Cl)cc1 (centres unmarked)	< 20
CCCC(Nc1ccccc1Oc1ccc(Cl)cc1)c1ccccc1NC(C)=O (centres unmarked)	> 60
CC(=O)Nc1ccccc1C(C)Nc1ccccc1Oc1ccc(Cl)cc1 (centres unmarked)	> 60
